Reference: patent publication US20130131075A1, “NEW COMPOUNDS” (Boehringer Ingelheim International GmbH, priority 2009, published 2013)

Molecular target: T1, cynomolgus BK1-receptor (Macaca fascicularis, UniProt Q3BCU0)
T1 construct: expressed in transfected cells; host or cells: CHO cells (homogenate)
T1 sequence (Q3BCU0 1-352): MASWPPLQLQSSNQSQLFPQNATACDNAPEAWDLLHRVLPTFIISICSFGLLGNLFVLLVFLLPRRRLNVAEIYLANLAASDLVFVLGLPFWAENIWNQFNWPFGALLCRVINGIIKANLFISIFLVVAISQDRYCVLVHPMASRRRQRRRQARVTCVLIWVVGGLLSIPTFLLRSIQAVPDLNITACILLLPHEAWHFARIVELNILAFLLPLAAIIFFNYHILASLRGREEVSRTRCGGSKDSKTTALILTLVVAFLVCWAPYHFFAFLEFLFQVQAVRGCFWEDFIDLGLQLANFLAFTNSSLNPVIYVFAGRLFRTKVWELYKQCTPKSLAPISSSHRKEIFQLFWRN
Assay: cynoBK1-receptor binding assay
Settings: CHO cells expressing cynomolgus BK1-receptor, radioligand kallidine (DesArg10,Leu9); for inhibition at 10 µM: at 10 μgmol/L
Description: Description of the Method of Binding the cynoBK1-Receptor
CHO cells that express the cynomolgus BK1-receptor are cultivated in “HAM'S F-12 Medium”. The medium is removed from confluent cultures, the cells are washed with PBS buffer, scraped off or detached using Versene and isolated by centrifuging. Then the cells are homogenised in suspension, the homogenate is centrifuged and resuspended. After the protein content has been determined 200 μl of the homogenate (50 to 250 μg protein/assay) are incubated for 60-180 minutes at ambient temperature with 0.5 to 5.0 nM kallidine (DesArg10,Leu9), [3,4-Prolyl-3,43H(N)] and increasing concentrations of the test substance in a total volume of 250 μl. The incubation is stopped by rapid filtration through GF/B glass fibre filters that have been pre-treated with polyethyleneimine (0.3%). The radioactivity bound to the protein is measured with a TopCount NXT. The radioactivity bound in the presence of 1.0 μM kallidine (DesArg10) is defined as non-specific binding. The concentration binding curve may be analysed using computer-aided non-linear curve fitting to determine the corresponding Ki value for the test substance.
Test results of the cynoBK1-receptor binding assay: […]

SMILES	inhibition at 10 µM	Ki
N#C/C(=N\O)C(=O)N[C@@]1(C(=O)NCc2ccc(Nc3ccccc3C(F)(F)F)cc2)CCOC1 [(66)]	81%	
O=C(N[C@@]1(C(=O)NCc2ccc(Nc3ccccc3C(F)(F)F)cc2)CCOC1)c1cccc(Cl)n1 [(67)]	63%	
COc1ccc(C(=O)N[C@@]2(C(=O)NCc3ccc(Nc4ccccc4C(F)(F)F)cc3)CCOC2)o1 [(68)]	78%	
O=C1CCCC(C(=O)N[C@@]2(C(=O)NCc3ccc(Nc4ccccc4C(F)(F)F)cc3)CCOC2)C1 (some centres unmarked) [(69)]	42%	
O=C(N[C@@]1(C(=O)NCc2ccc(Nc3ccccc3C(F)(F)F)cc2)CCOC1)c1cccc(O)n1 [(70)]	107%	
CN1CC(C(=O)N[C@@]2(C(=O)NCc3ccc(Nc4ccccc4C(F)(F)F)cc3)CCOC2)CC1=O (some centres unmarked) [(71)]	80%	
Nc1cccc(C(=O)N[C@@]2(C(=O)NCc3ccc(Nc4ccccc4C(F)(F)F)cc3)CCOC2)n1 [(72)]	89%	416 nM
O=C(N[C@@]1(C(=O)NCc2ccc(Nc3ccccc3C(F)(F)F)cc2)CCOC1)c1cccnn1 [(74)]	56%	
COC1CC(C(=O)N[C@@]2(C(=O)NCc3ccc(Nc4ccccc4C(F)(F)F)cc3)CCOC2)C1 (some centres unmarked) [(75)]	71%	
O=C1CCC(C(=O)N[C@@]2(C(=O)NCc3ccc(Nc4ccccc4C(F)(F)F)cc3)CCOC2)CN1 (some centres unmarked) [(76)]	80%	
Cc1ncncc1C(=O)N[C@@]1(C(=O)NCc2ccc(Nc3ccccc3C(F)(F)F)cc2)CCOC1 [(77)]	96%	
O=C1CCC(C(=O)N[C@@]2(C(=O)NCc3ccc(Nc4ccccc4C(F)(F)F)cc3)CCOC2)C1 (some centres unmarked) [(78)]	73%	
COc1cc(C(=O)N[C@@]2(C(=O)NCc3ccc(Nc4ccccc4C(F)(F)F)cc3)CCOC2)ccn1 [(79)]	104%	292 nM
Cc1ncc(C(=O)N[C@@]2(C(=O)NCc3ccc(Nc4ccccc4C(F)(F)F)cc3)CCOC2)c(C)n1 [(80)]	88%	
COc1ncc(C(=O)N[C@@]2(C(=O)NCc3ccc(Nc4ccccc4C(F)(F)F)cc3)CCOC2)cn1 [(81)]	113%	
CNc1ncc(C(=O)N[C@@]2(C(=O)NCc3ccc(Nc4ccccc4C(F)(F)F)cc3)CCOC2)cn1 [(82)]	107%	
Cc1ncc(C(=O)N[C@@]2(C(=O)NCc3ccc(Nc4ccccc4C(F)(F)F)cc3)CCOC2)cn1 [(83)]	113%	9 nM
Cn1ccc(C(=O)N[C@@]2(C(=O)NCc3ccc(Nc4ccccc4C(F)(F)F)cc3)CCOC2)cc1=O [(84)]	104%	90 nM
O=C(N[C@@]1(C(=O)NCc2ccc(Nc3ccccc3C(F)(F)F)cc2)CCOC1)c1cnco1 [(85)]	93%	
O=C(N[C@@]1(C(=O)NCc2ccc(Nc3ccccc3C(F)(F)F)cc2)CCOC1)c1ccnc(O)c1 [(86)]	108%	100 nM
O=C(N[C@@]1(C(=O)NCc2ccc(Nc3ccccc3C(F)(F)F)cc2)CCOC1)c1cncc(O)c1 [(87)]	112%	
Cn1cc(C(=O)N[C@@]2(C(=O)NCc3ccc(Nc4ccccc4C(F)(F)F)cc3)CCOC2)nn1 [(88)]	80%	
O=C(N[C@@]1(C(=O)NCc2ccc(Nc3ccccc3C(F)(F)F)cc2)CCOC1)c1cncs1 [(89)]	96%	
O=C(N[C@@]1(C(=O)NCc2ccc(Nc3ccccc3C(F)(F)F)cc2)CCOC1)c1cnc(O)nc1 [(90)]	109%	135 nM
CC(C(=O)N[C@@]1(C(=O)NCc2ccc(Nc3ccccc3C(F)(F)F)cc2)CCOC1)C(F)(F)F (some centres unmarked) [(91)]	100%	
COc1cncc(C(=O)N[C@@]2(C(=O)NCc3ccc(Nc4ccccc4C(F)(F)F)cc3)CCOC2)c1 [(92)]	110%	62 nM
O=C(N[C@@]1(C(=O)NCc2ccc(Nc3ccccc3C(F)(F)F)cc2)CCOC1)c1ccoc1 [(93)]	84%	
O=C(N[C@@]1(C(=O)NCc2ccc(Nc3ccccc3C(F)(F)F)cc2)CCOC1)c1ccco1 [(94)]	57%	
O=C(N[C@@]1(C(=O)NCc2ccc(Nc3ccccc3C(F)(F)F)cc2)CCOC1)c1ccncc1 [(95)]	86%	

Second part, the compound after the results:

inhibition at 10 µM	Ki	SMILES
78%		O=C(N[C@@]1(C(=O)NCc2ccc(Nc3ccccc3C(F)(F)F)cc2)CCOC1)c1cnccn1 [(96)]
	132 nM	O=C(N[C@@]1(C(=O)NCc2ccc(Nc3ccccc3C(F)(F)F)cc2)CCOC1)c1cccc(O)c1 [(97)]
103%	417 nM	O=C(N[C@@]1(C(=O)NCc2ccc(Nc3ccccc3C(F)(F)F)cc2)CCOC1)c1ccc(O)nc1 [(98)]
96%		COc1ccc(C(=O)N[C@@]2(C(=O)NCc3ccc(Nc4ccccc4C(F)(F)F)cc3)CCOC2)cc1 [(99)]
103%		COc1cccc(C(=O)N[C@@]2(C(=O)NCc3ccc(Nc4ccccc4C(F)(F)F)cc3)CCOC2)c1 [(100)]
105%	87 nM	O=C(N[C@@]1(C(=O)NCc2ccc(Nc3ccccc3C(F)(F)F)cc2)CCOC1)c1cc(O)cc(O)c1 [(102)]
87%		COc1cc(OC)cc(C(=O)N[C@@]2(C(=O)NCc3ccc(Nc4ccccc4C(F)(F)F)cc3)CCOC2)c1 [(103)]
54%		O=C(Cc1cccnc1)N[C@@]1(C(=O)NCc2ccc(Nc3ccccc3C(F)(F)F)cc2)CCOC1 [(104)]
113%	20 nM	Nc1cncc(C(=O)N[C@@]2(C(=O)NCc3ccc(Nc4ccccc4C(F)(F)F)cc3)CCOC2)c1 [(105)]
69%		O=C(N[C@@]1(C(=O)NCc2ccc(Nc3ccccc3C(F)(F)F)cc2)CCOC1)c1cc[nH]n1 [(106)]
95%		O=C(N[C@@]1(C(=O)NCc2ccc(Nc3ccccc3C(F)(F)F)cc2)CCOC1)c1ccc(F)nc1 [(107)]
101%	135 nM	CCNC(=O)NC1(C(=O)NCc2ccc(Nc3ccccc3C(F)(F)F)cc2)CC1 [(108)]
27%		CN(c1ccccc1)c1ccc(CNC(=O)C2(NC(=O)c3cncnc3)CC2)cc1 [(109)]
33%		CN(c1ccc(CNC(=O)C2(NC(=O)c3cncnc3)CC2)cc1)c1ccccc1Cl [(110)]
20%		CCN(c1ccccc1)c1ccc(CNC(=O)C2(NC(=O)c3cncnc3)CC2)cc1 [(111)]
45%		COc1ccc(N(C)c2ccc(CNC(=O)C3(NC(=O)c4cncnc4)CC3)cc2)cc1 [(112)]

inhibition at 10 µM	Ki	SMILES
7%		Cc1ccccc1N(C)c1ccc(CNC(=O)C2(NC(=O)c3cncnc3)CC2)cc1 [(113)]
77%	> 500 nM	N#Cc1ccc(F)cc1Nc1ccc(CNC(=O)C2(NC(=O)c3cncnc3)CC2)cc1 [(114)]
99%	> 500 nM	N#Cc1c(F)cccc1Nc1ccc(CNC(=O)C2(NC(=O)c3cncnc3)CC2)cc1 [(115)]
83%	> 500 nM	N#Cc1cccc(F)c1Nc1ccc(CNC(=O)C2(NC(=O)c3cncnc3)CC2)cc1 [(116)]
111%	2.8 nM	CCOc1ccc(Nc2ccc(CNC(=O)C3(NC(=O)c4cncnc4)CC3)cc2)c(C(F)(F)F)c1 [(117)]
109%	64 nM	O=C(NC1(C(=O)NCc2ccc(Nc3ccc(OCC(F)F)cc3C(F)(F)F)cc2)CC1)c1cncnc1 [(118)]
82%	375 nM	CC(C)Oc1ccc(Nc2ccc(CNC(=O)C3(NC(=O)c4cncnc4)CC3)cc2)c(C(F)(F)F)c1 [(119)]
113%	2.4 nM	O=C(NC1(C(=O)NCc2ncc(Nc3c(F)cccc3C(F)(F)F)cc2F)CC1)c1cncnc1 [(120)]
113%	2 nM	CC(NC(=O)C1(NC(=O)c2cncnc2)CC1)c1ncc(Nc2c(F)cccc2C(F)(F)F)cc1F (centres unmarked) [(121)]
113%	6.3 nM	CC(NC(=O)C1(NC(=O)c2cncc(N)c2)CC1)c1ncc(Nc2c(F)cccc2C(F)(F)F)cc1F (centres unmarked) [(122)]
110%	8.3 nM	CC(NC(=O)C1(NC(=O)c2cncnc2)CC1)c1ccc(Nc2c(F)cccc2C(F)(F)F)cn1 (centres unmarked) [(123)]
112%	33 nM	CC(NC(=O)C1(NC(=O)c2cncc(N)c2)CC1)c1ccc(Nc2c(F)cccc2C(F)(F)F)cn1 (centres unmarked) [(124)]
108%	12 nM	Nc1cncc(C(=O)NC2(C(=O)NCc3ncc(Nc4c(F)cccc4C(F)(F)F)cc3F)CC2)c1 [(125)]
103%	46 nM	O=C(NC1(C(=O)NCc2ccc(Nc3ccc(Br)cc3Cl)cn2)CC1)c1cncnc1 [(126)]
108%		O=C(N[C@@]1(C(=O)NCc2ccc(Nc3ccccc3C(F)(F)F)cc2)CCOC1)c1cncnc1 [(127)]
103%	84 nM	O=C(NC1(C(=O)NCc2ncc(Nc3c(F)cccc3C(F)(F)F)cc2F)CC1)c1ccnnc1 [(128)]
